ChEMBL document CHEMBL1201862, “PubChem BioAssay data set” (2004)
Activity calls are given as the source filed them.

What was measured:
[1] = ADAM10 protease inhibitors, dose response, selectivity assay for ADAM17 exosite inhibitor project, biochemical, FRET peptide substrate, recombinant human ADAM10 (AID 743259);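 further: ADAM10 enzyme cleaving a FRET peptide substrate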
Fatty acid synthase [2] = target: T1, Fatty acid synthase (Homo sapiens, UniProt P49327); test: FAS thioesterase domain inhibitors, dose response, biochemical, kinetic fluorescence intensity (AID 624326); type: functional;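 further: rate of fluorescence rise from hydrolysis of a fluorogenic O-methyl fluorescein ester substrate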
T1 sequence (P49327 whole entry, the tested form may be a part): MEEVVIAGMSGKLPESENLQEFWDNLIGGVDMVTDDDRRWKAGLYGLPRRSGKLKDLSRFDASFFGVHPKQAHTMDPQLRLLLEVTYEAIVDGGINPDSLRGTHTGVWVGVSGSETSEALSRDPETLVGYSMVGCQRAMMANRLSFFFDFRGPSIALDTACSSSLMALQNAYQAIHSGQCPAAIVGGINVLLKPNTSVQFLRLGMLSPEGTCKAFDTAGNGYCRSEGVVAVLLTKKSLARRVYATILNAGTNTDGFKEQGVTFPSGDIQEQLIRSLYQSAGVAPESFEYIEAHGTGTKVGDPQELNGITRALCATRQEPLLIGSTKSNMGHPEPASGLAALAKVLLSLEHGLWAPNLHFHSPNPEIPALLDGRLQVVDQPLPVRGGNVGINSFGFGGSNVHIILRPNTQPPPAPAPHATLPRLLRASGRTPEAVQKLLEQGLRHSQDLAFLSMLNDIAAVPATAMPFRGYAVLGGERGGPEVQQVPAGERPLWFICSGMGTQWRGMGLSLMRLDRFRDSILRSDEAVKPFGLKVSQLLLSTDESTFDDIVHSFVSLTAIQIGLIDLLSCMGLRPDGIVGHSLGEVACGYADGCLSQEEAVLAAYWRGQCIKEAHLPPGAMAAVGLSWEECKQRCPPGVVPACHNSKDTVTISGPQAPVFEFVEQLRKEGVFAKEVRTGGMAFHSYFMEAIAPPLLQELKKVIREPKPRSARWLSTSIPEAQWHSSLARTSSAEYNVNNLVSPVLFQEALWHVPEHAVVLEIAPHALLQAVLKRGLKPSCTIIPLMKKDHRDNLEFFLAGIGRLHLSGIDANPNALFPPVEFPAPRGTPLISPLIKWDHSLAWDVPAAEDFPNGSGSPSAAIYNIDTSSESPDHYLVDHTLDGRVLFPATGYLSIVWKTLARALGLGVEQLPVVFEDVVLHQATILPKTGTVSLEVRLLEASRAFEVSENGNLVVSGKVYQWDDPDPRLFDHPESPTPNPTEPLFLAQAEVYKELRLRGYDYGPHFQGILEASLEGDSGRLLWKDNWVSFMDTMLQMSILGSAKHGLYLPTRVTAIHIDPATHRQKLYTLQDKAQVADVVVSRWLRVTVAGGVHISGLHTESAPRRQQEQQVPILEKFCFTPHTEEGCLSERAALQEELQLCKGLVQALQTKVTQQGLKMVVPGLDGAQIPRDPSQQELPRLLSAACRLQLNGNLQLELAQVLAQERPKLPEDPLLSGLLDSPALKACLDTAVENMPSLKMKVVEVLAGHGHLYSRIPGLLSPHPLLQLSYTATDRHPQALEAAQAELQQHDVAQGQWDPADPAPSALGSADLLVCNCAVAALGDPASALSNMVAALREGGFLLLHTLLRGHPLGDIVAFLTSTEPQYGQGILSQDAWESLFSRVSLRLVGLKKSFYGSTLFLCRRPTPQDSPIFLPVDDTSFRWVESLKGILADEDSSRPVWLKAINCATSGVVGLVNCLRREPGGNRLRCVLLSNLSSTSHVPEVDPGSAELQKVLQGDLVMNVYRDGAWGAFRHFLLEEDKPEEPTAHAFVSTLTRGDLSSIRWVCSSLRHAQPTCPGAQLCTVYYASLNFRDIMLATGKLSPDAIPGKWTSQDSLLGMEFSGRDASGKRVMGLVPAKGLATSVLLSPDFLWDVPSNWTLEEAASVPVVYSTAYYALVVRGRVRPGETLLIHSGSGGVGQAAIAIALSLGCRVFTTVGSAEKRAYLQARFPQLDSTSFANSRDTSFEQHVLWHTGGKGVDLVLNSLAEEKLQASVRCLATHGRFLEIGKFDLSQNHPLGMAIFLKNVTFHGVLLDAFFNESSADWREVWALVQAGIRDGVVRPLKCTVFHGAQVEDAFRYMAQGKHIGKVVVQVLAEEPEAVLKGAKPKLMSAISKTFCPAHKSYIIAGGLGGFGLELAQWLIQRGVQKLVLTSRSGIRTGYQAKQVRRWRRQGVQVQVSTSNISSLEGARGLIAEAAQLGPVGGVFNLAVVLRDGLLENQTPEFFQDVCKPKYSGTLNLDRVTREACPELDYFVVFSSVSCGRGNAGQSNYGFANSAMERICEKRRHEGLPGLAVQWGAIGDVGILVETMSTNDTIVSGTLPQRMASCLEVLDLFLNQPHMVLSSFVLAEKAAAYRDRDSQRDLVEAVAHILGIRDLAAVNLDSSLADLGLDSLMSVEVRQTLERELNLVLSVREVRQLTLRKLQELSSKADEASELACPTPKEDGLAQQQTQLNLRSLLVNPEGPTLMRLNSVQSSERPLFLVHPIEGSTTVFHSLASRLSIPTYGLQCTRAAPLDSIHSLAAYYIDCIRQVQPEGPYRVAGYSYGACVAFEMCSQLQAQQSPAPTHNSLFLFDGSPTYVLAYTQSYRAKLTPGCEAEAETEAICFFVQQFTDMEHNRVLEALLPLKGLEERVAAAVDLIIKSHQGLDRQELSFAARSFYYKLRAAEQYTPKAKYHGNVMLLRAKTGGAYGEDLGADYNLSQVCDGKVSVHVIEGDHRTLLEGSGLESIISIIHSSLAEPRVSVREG

Fatty acid synthase [3] = target: T1, Fatty acid synthase; test: FAS thioesterase domain inhibitors, dose response, biochemical, endpoint fluorescence intensity, uHTS hits (AID 624327); type: functional;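 further: fluorescence from hydrolysis of an O-methyl fluorescein acyl ester substrate by the enzyme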
[4] = target: T2, Rac GTPase-activating protein 1 (Homo sapiens, UniProt Q9H0H5); test: MgcRacGAP GTPase-activating activity inhibitors, confirmation, biochemical, ADP Hunter fluorescence, primary and confirmatory (AID 624330); type: functional
T2 sequence (Q9H0H5 whole entry): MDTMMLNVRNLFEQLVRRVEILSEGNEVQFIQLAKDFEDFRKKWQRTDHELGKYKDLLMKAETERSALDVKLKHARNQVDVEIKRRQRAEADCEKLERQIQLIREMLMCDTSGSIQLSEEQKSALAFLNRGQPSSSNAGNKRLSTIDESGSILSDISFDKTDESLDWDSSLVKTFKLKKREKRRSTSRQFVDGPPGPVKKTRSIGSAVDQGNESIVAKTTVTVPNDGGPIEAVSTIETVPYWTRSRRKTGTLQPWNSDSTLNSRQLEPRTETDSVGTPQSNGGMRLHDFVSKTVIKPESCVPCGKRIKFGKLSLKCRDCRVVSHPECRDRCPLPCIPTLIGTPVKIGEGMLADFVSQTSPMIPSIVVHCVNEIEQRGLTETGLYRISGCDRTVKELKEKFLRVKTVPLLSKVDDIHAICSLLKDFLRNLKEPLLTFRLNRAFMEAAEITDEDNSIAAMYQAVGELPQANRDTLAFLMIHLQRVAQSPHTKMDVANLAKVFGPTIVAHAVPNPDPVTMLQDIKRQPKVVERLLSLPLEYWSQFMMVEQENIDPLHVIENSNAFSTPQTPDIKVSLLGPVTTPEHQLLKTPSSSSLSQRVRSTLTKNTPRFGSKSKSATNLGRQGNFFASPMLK

H4 = test: Luminescence Cell-Based Dose Response HTS to Identify Activators of 5'UTR Stem-Loop Driven Prion Protein mRNA Translation in H4 Neuroglioblastoma Cells. [Related pubchem assays: 1829 (Project Summary), 1814 (Primary HTS)]; type: functional; settings: Homo sapiens
[5] = Luminescence Cell-Based Dose Confirmation HTS to Identify Activators of 5'UTR Stem-Loop Driven Alpha-Synuclein mRNA Translation in H4 Neuroglioblastoma Cells. [Related pubchem assays: 1829 (Project Summary), 1814 (Primary HTS)]; type: functional
[6] = HeLa cell cytotoxicity, dose response, cytotoxicity control for MgcRacGAP inhibitor project (AID 624300); type: functional
[7] = Luminescence Cell-Based Dose Response HTS to Identify Activators of Luciferase Translation or Activity in H4 […] Cells. [Related pubchem assays: 1829 (Project Summary), 1814 (Primary HTS)]; type: functional
[8] = target: T3, Histone-lysine N-methyltransferase NSD2 (Homo sapiens, UniProt O96028); type: biochemical
T3 sequence (O96028 whole entry): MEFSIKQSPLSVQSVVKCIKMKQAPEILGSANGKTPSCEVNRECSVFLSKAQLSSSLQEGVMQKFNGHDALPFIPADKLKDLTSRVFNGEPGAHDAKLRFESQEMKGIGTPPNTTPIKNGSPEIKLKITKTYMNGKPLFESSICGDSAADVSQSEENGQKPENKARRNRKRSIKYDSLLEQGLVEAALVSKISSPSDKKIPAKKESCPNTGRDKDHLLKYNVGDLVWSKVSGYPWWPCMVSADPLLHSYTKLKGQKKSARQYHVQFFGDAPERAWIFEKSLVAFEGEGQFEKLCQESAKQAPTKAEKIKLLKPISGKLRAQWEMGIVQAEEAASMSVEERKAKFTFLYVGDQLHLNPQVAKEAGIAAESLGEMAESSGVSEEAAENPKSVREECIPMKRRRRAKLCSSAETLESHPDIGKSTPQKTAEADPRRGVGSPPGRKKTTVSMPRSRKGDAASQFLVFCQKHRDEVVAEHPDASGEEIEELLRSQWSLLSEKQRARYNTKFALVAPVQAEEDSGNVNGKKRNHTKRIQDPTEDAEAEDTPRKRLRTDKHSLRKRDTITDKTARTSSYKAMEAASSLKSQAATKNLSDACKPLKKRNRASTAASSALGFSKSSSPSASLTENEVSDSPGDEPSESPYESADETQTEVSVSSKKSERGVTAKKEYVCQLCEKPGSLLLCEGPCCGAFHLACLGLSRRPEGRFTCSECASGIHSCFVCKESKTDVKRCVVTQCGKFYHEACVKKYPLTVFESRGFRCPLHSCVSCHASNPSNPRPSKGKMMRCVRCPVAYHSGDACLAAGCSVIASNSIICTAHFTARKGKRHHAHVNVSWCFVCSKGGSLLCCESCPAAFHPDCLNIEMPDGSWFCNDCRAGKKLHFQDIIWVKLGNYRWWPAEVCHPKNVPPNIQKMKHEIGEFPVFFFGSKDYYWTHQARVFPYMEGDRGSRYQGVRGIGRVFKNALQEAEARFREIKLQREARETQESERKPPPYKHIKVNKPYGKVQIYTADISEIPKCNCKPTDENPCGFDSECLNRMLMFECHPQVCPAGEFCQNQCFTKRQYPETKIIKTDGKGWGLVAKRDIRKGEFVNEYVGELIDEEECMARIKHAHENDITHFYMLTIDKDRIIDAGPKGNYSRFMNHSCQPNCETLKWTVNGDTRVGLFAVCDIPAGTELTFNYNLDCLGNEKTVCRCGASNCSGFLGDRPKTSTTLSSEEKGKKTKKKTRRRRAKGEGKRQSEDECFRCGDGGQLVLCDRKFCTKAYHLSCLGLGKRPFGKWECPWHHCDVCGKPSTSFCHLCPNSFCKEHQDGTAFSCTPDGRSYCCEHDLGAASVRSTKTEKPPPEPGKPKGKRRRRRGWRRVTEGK

[9] = target: T4, Small ubiquitin-related modifier 1 (Homo sapiens, UniProt P63165); test: inhibitors of SUMO1 partner interactions, dose response, biochemical, FRET (AID 624383); type: functional; settings: read-out: IC50_Mean
T4 sequence (P63165 whole entry): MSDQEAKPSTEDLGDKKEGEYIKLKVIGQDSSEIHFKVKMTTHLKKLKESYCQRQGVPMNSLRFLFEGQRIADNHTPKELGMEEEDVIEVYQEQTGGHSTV

[10] = target: T5, DNA repair and recombination protein RAD54-like (Homo sapiens, UniProt Q92698); test: inhibitors of human RAD54 branch migration, confirmation, biochemical, fluorescence, cherry-picked samples, dose series (AID 651657); type: functional
T5 sequence (Q92698 whole entry): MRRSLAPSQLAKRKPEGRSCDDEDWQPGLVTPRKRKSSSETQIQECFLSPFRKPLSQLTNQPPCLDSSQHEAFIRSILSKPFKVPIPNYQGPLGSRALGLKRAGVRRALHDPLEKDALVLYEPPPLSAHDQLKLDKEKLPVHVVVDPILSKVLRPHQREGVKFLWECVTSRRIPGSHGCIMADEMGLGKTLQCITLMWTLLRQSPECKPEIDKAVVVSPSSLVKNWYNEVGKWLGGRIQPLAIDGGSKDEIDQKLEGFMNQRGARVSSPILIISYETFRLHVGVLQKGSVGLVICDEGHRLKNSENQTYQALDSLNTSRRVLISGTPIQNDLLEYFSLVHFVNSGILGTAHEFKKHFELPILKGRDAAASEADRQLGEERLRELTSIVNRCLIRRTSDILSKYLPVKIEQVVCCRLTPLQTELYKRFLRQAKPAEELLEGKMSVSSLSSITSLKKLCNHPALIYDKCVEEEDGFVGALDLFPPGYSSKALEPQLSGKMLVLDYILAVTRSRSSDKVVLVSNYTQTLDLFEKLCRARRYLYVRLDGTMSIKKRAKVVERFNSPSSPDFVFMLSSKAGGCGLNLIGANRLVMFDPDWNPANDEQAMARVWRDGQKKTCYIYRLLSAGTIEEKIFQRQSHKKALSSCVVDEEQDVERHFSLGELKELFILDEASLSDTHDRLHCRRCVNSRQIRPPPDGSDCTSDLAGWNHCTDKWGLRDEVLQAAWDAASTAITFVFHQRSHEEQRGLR

[11] = target: T4, Small ubiquitin-related modifier 1; test: inhibitors of SUMO1 peptide binding, dose response, biochemical, fluorescence polarization, uHTS hits (AID 624382); type: functional; settings: read-out: IC50_Mean
[12] = target: T6, DNA repair protein RAD52 homolog (Homo sapiens, UniProt P43351); type: functional, biochemical
T6 sequence (P43351 whole entry): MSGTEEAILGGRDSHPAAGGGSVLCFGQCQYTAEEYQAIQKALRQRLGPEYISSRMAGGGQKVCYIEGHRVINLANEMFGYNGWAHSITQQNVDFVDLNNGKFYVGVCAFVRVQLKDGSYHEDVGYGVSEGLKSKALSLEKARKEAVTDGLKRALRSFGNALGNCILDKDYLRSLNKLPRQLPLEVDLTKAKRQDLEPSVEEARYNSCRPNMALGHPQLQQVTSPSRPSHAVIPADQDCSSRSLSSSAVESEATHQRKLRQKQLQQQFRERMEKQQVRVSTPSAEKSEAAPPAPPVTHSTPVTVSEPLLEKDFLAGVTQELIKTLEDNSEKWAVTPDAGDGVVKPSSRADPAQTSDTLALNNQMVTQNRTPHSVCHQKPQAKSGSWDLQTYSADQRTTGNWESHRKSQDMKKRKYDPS

[13] = HepG2 cell cytotoxicity, dose response, cytotoxicity control, ATP luminescence, cherry-pick, activator set 2 (AID 1053143); type: functional, cell-based

In the case of `COc1cc(C(c2c(C)n[nH]c2O)c2c(C)n[nH]c2O)ccc1OCc1ccc([N+](=O)[O-])cc1`, the IC50 [1] is reported as > 23.2 µM (inactive).

For `CN(Cc1ccccc1)C(=O)COC(=O)c1cc([N+](=O)[O-])ccc1N1CCOCC1`, the IC50 (Fatty acid synthase [2]) was 0.617 µM (active) and the IC50 (Fatty acid synthase [3]) was 0.539 µM (active).

For `CCn1c(SC(C)C)nnc1-c1cc(-c2ccccc2)sc1N`, the IC50 [4] was 31.1 µM (active), the EC50 (H4) was > 120 µM (not active) and the EC50 [5] was > 120 µM (not active). For the same molecule, the CC50 [6] was 100 µM (active) and the EC50 [7] was > 120 µM (not active).

With `Cc1cc(/C=C2\C(=O)NC(=O)N(Cc3ccccc3Cl)C2=O)c(C)n1-c1ccc(C(=O)O)cc1` the AC50 [8] was > 20 µM (inactive).

With `COCCCNC(=O)C[C@H]1C[C@H](C(=O)N2CCOCC2)[C@@]2(CCC3CCCC3)c3[nH]c4cc(-c5ccco5)ccc4c3CCN2C1=O` the IC50 (Fatty acid synthase [2]) was 9.08 µM (active) and the IC50 (Fatty acid synthase [3]) was 6.51 µM (active).

For `CN(C)CCNC(=O)c1cccc(-c2cnc3c(NC=O)cc(-c4cccs4)cn23)c1`, the IC50 [9] was 1.82 µM (active), the AC50 [10] was 15.6 µM (active) and the IC50 [11] was > 66.6 µM (inactive). For the same molecule, the AC50 [12] was 8.36 µM (active).

With `CN(C)c1ccc(C=Cc2ccnc3ccccc23)cc1N` the AC50 [13] was 26 µM (active).
